The results in this text go back to patent US4311699A, “Aminoacid derivatives of cephalosporin compounds” (priority 1980, dated 1982).

Molecules are shown by their SMILES. In brackets after ≈: the same amount, converted by molar mass.

Holding throughout (experiment): in vitro antibacterial activity, minimal inhibitory concentration
What all share (type): cell-based

The test system of assay [1] is E. coli Brig. Particulars: Escherichia coli. From the text: (§1) The compounds of the invention are new chemical compounds that are used as pharmacological agents and especially as broad spectrum antibacterial agents. They are active in vitro against strains of both gram-positive and gram-negative bacteria.
(§2) Minimal Inhibitory Concentration (μg/ml)

The test system of assay [2] is E. coli Vogel. To be noted: Escherichia coli.
Source text: as §1, §2

Assay [3] has as its system Entero. cloacae. Particulars: Enterobacter cloacae.
Source text: as §1, §2

Assay [4] concerns Klebs. pneu.
Source text: as §1, §2

In assay [5] the test system is Prot. vulg.
Source text: as §1, §2

The subject of assay [6] is Pseudomonas #28. Particulars: Pseudomonas #28, in vitro; read-out: Minimal Inhibitory Concentration.
Source text: as §1, §2

The test system of assay [7] is Pseudomonas BRK 12-4-4. Particulars: BRK1244; Pseudomonas BRK 12-4-4, in vitro.
Source text: as §1, §2

Assay [8] relates to Pseudomonas UI 18. To be noted: UI18; Pseudomonas UI 18, in vitro.
Source text: as §1, §2

Assay [9] has as its system Serr. marces.
Source text: as §1, §2

Assay [10] has as its system Staph. aureus S18733. Particulars: Staphylococcus aureus.
Source text: as §1, §2

Assay [11] concerns Staph. aureus UC-76. To be noted: Staphylococcus aureus, UC76; Staph. aureus UC-76, in vitro.
Source text: as §1, §2

In assay [12] the test system is Strep. fec.
Source text: as §1, §2

As for `CC(=O)NC(C)C(=O)Nc1ccc(-c2ncc(C(=O)N[C@@H](C(=O)NC3C(=O)N4C(C(=O)O)=C(CSc5nnnn5CC(=O)O)CSC34)c3ccccc3)c(O)n2)cc1` (mixture of isomers) [Example 35, N-[2-[4-(N-Acetyl-DL-alanylamino)phenyl]-4-hydroxy-5-pyrimidinylcarbonyl]-7-[D-2-phenylacetamido-3-[[(1-carboxymethyl-1H-tetrazol-5-yl)thio]methyl]-3-cephem-4-carboxylic acid], the MIC in assay [1] stood at 6.3 µg/mL; in assay [2] it was 3.1 µg/mL; in assay [3] it was 6.3 µg/mL; in assay [4] it was 6.3 µg/mL; in [5], 3.1 µg/mL; in [6], 6.3 µg/mL. The MIC was 12.5 µg/mL in assay [7]; 12.5 µg/mL in assay [8]; 50 µg/mL in assay [9]; 25 µg/mL in assay [10]; 12.5 µg/mL in assay [11]; over 50 µg/mL in assay [12].
Consider `CC(=O)NC(C)(C)C(=O)Nc1ccc(-c2ncc(C(=O)N[C@@H](C(=O)NC3C(=O)N4C(C(=O)O)=C(CSc5nnnn5C)CSC34)c3ccccc3)c(O)n2)cc1` (stereo partly drawn) [Example 28], for which the MIC amounted to 12.5 µg/mL (≈ 15.6 µM) in assay [1]; 3.1 µg/mL (≈ 3.87 µM) in assay [2]; 6.3 µg/mL (≈ 7.86 µM) in assay [3]; 6.3 µg/mL (≈ 7.86 µM) in assay [4]; 25 µg/mL (≈ 31.2 µM) in [5]; 3.1 µg/mL (≈ 3.87 µM) in [6]. The MIC was found to be 6.3 µg/mL (≈ 7.86 µM) in assay [7]; 6.3 µg/mL (≈ 7.86 µM) in assay [8]; 50 µg/mL (≈ 62.4 µM) in assay [9]; 6.3 µg/mL (≈ 7.86 µM) in [10]; 3.1 µg/mL (≈ 3.87 µM) in assay [11]; 50 µg/mL (≈ 62.4 µM) in [12].
For `CC(=O)N[C@H](C)C(=O)Nc1ccc(-c2ncc(C(=O)N[C@@H](C(=O)N[C@@H]3C(=O)N4C(C(=O)O)=C(COC(C)=O)CS[C@H]34)c3ccccc3)c(O)n2)cc1` [Example 1, N-[2-[4-(N-Acetyl-D-alanylamino)phenyl]-4-hydroxy-5-pyrimidinyl-carbonyl]-7-[D-2-amino-2-phenylacetamido]-3-acetoxymethyl-3-cephem-4-carboxylic acid], the MIC in [1] was determined as 25 µg/mL (≈ 34.2 µM); in [2] it was 6.3 µg/mL (≈ 8.61 µM); in [3], 50 µg/mL (≈ 68.3 µM); in assay [4], 200 µg/mL (≈ 273 µM); in assay [5], 12.5 µg/mL (≈ 17.1 µM); in assay [6], 3.1 µg/mL (≈ 4.24 µM). The MIC in assay [7] was determined as 3.1 µg/mL (≈ 4.24 µM); in assay [8] it was 3.1 µg/mL (≈ 4.24 µM); in [9], 12.5 µg/mL (≈ 17.1 µM); in assay [10], 3.1 µg/mL (≈ 4.24 µM); in assay [11], 0.8 µg/mL (≈ 1.09 µM); in [12], 50 µg/mL (≈ 68.3 µM).
As to `CC(=O)NC(C)C(=O)Nc1ccc(-c2ncc(C(=O)N[C@@H](C(=O)N[C@@H]3C(=O)N4C(C(=O)O)=C(COC(C)=O)CS[C@H]34)c3ccc(O)cc3)c(O)n2)cc1` (mixture of isomers) [Example 9, N-[2-[4-(N-Acetyl-DL-alanylamino)phenyl]-4-hydroxy-5-pyrimidinylcarbonyl]-7-[D-2-amino-2-(4-hydroxyphenyl)acetamido]-3-acetoxymethyl-3-cephem-4-carboxylic acid], the MIC in assay [1] came to 50 µg/mL; in [2] it was 12.5 µg/mL; in [3], 50 µg/mL; in assay [4] it was 12.5 µg/mL; in [5] it was 12.5 µg/mL; in assay [6], 1.6 µg/mL. For the same compound, the MIC is 3.1 µg/mL in assay [7]; 3.1 µg/mL in [8]; over 50 µg/mL in assay [9]; 6.3 µg/mL in [10]; 3.1 µg/mL in assay [11]; 50 µg/mL in assay [12].
Turning to `CC(=O)N[C@@H](C)C(=O)Nc1ccc(-c2ncc(C(=O)N[C@@H](C(=O)N[C@@H]3C(=O)N4C(C(=O)O)=C(COC(C)=O)CS[C@H]34)c3ccccc3)c(O)n2)cc1` [Example 10, N-[2-[4-(N-Acetyl-L-alanylamino)phenyl]-4-hydroxy-5-pyrimidinylcarbonyl]-7-[D-2-amino-2-phenylacetamido]-3-acetoxy-methyl-3-cephem-4-carboxylic acid], the MIC in assay [1] is 25 µg/mL (≈ 34.2 µM); in assay [2], 12.5 µg/mL (≈ 17.1 µM); in assay [3], 50 µg/mL (≈ 68.3 µM); in assay [4], 25 µg/mL (≈ 34.2 µM); in assay [5] it was 25 µg/mL (≈ 34.2 µM); in assay [6] it was 6.3 µg/mL (≈ 8.61 µM). In addition, the MIC in [7] is 12.5 µg/mL (≈ 17.1 µM); in assay [8], 6.3 µg/mL (≈ 8.61 µM); in assay [9] it was over 50 µg/mL; in [10] it was 6.3 µg/mL (≈ 8.61 µM); in [11], 3.1 µg/mL (≈ 4.24 µM); in assay [12], 50 µg/mL (≈ 68.3 µM).
Take `CC(=O)N[C@@H](C)C(=O)Nc1ccc(-c2ncc(C(=O)N[C@@H](C(=O)NC3C(=O)N4C(C(=O)O)=C(CSc5nnnn5CC(=O)O)CSC34)c3ccccc3)c(O)n2)cc1` (stereo partly drawn) [Example 33]: the MIC is 12.5 µg/mL (≈ 15 µM) in [1]; 1.6 µg/mL (≈ 1.92 µM) in assay [2]; 6.3 µg/mL (≈ 7.57 µM) in [3]; 6.3 µg/mL (≈ 7.57 µM) in assay [4]; 3.1 µg/mL (≈ 3.73 µM) in assay [5]; 6.3 µg/mL (≈ 7.57 µM) in assay [6]. The MIC is 12.5 µg/mL (≈ 15 µM) in [7]; 12.5 µg/mL (≈ 15 µM) in [8]; over 50 µg/mL in assay [9]; 25 µg/mL (≈ 30.1 µM) in assay [10]; 6.3 µg/mL (≈ 7.57 µM) in assay [11]; over 50 µg/mL in assay [12].
On to `CC(=O)NC(C)C(=O)Nc1ccc(-c2ncc(C(=O)N[C@@H](C(=O)NC3C(=O)N4C(C(=O)O)=C(CSc5nnnn5C)CSC34)c3ccc(O)cc3)c(O)n2)cc1` (mixture of isomers) [Example 32, N-[2-[4-(N-Acetyl-DL-alanylamino)phenyl]-4-hydroxy-5-pyrimidinylcarbonyl]-7-[D-2-amino-2-(4-hydroxyphenyl)acetamido]-3-[[(1-methyl-1H-tetrazol-5-yl)thio]methyl]-3-cephem-4-carboxylic acid], for which the MIC in assay [1] turned out to be 6.3 µg/mL; in [2] it was 1.6 µg/mL; in assay [3] it was 6.3 µg/mL; in [4], 1.6 µg/mL; in assay [5], 12.5 µg/mL; in assay [6], 3.1 µg/mL. Besides, the MIC in assay [7] was 6.3 µg/mL; in assay [8], 6.3 µg/mL; in assay [9] it was over 50 µg/mL; in [10], 6.3 µg/mL; in assay [11] it was 3.1 µg/mL; in assay [12] it was 50 µg/mL.
For `CSCCC(NC(C)=O)C(=O)Nc1ccc(-c2ncc(C(=O)N[C@@H](C(=O)N[C@@H]3C(=O)N4C(C(=O)O)=C(COC(C)=O)CS[C@H]34)c3ccccc3)c(O)n2)cc1` (mixture of isomers) [Example 5, N-[2-[4-(N-Acetyl-DL-methionylamino)phenyl]-4-hydroxy-5-pyrimidinylcarbonyl]-7-[D-2-amino-2-phenylacetamido]-3-acetoxymethyl-3-cephem-4-carboxylic acid], the MIC came to 25 µg/mL in assay [1]; 6.3 µg/mL in assay [2]; 25 µg/mL in [3]; 12.5 µg/mL in assay [4]; 25 µg/mL in assay [5]; 3.1 µg/mL in assay [6]. For the same compound, the MIC in assay [7] was 6.3 µg/mL; in assay [8], 6.3 µg/mL; in assay [9], over 50 µg/mL; in assay [10], 3.1 µg/mL; in assay [11], 1.6 µg/mL; in assay [12] it was 50 µg/mL.
`CC(=O)NCCC(=O)Nc1ccc(-c2ncc(C(=O)N[C@@H](C(=O)N[C@@H]3C(=O)N4C(C(=O)O)=C(COC(C)=O)CS[C@H]34)c3ccccc3)c(O)n2)cc1` [Example 3]: the MIC was determined as 25 µg/mL (≈ 34.2 µM) in [1]; 12.5 µg/mL (≈ 17.1 µM) in assay [2]; 50 µg/mL (≈ 68.3 µM) in assay [3]; 12.5 µg/mL (≈ 17.1 µM) in assay [4]; 12.5 µg/mL (≈ 17.1 µM) in assay [5]; 6.3 µg/mL (≈ 8.61 µM) in assay [6]. Further, the MIC in assay [7] is 12.5 µg/mL (≈ 17.1 µM); in [8], 6.3 µg/mL (≈ 8.61 µM); in [9], under 50 µg/mL; in assay [10] it was 6.3 µg/mL (≈ 8.61 µM); in [11] it was 1.6 µg/mL (≈ 2.19 µM); in [12], 50 µg/mL (≈ 68.3 µM).
For `CC(=O)NC(C)C(=O)Nc1ccc(-c2ncc(C(=O)N[C@@H](C(=O)NC3C(=O)N4C(C(=O)O)=C(CSc5nnnn5C)CSC34)c3ccccc3)c(O)n2)cc1` (mixture of isomers) [Example 24, N-[2-[4-(N-Acetyl-DL-alanylamino)phenyl]-4-hydroxy-5-pyrimidinylcarbonyl]-7-[D-2-amino-2-phenylacetamido]-3-[[(1-methyl-1H-tetrazol-5-yl)thio]methyl]-3-cephem-4-carboxylic acid], the MIC came to 12.5 µg/mL in [1]; 3.1 µg/mL in [2]; 12.5 µg/mL in [3]; 1.6 µg/mL in [4]; 25 µg/mL in [5]; 6.3 µg/mL in [6]. For the same compound, the MIC in [7] is 12.5 µg/mL; in assay [8], 6.3 µg/mL; in assay [9], 50 µg/mL; in assay [10], 3.1 µg/mL; in assay [11], 1.6 µg/mL; in assay [12], 50 µg/mL.
On to `CC(=O)N[C@H](C)C(=O)Nc1ccc(-c2ncc(C(=O)N[C@@H](C(=O)N[C@@H]3C(=O)N4C(C(=O)O)=C(COC(C)=O)CS[C@H]34)c3cccs3)c(O)n2)cc1` [Example 19, N-[2-[4-(N-Acetyl-D-alanylamino)phenyl]-4-hydroxy-5-pyrimidinylcarbonyl]-7-[D-2-amino-2-(2-thienyl)acetamido]-3-acetoxymethyl-3-cephem-4-carboxylic acid], for which the MIC in [1] was over 50 µg/mL; in assay [2], 12.5 µg/mL (≈ 16.9 µM); in assay [3], 50 µg/mL (≈ 67.8 µM); in [4], 12.5 µg/mL (≈ 16.9 µM); in [5] it was 25 µg/mL (≈ 33.9 µM); in assay [6], 6.3 µg/mL (≈ 8.54 µM). In addition, the MIC is 6.3 µg/mL (≈ 8.54 µM) in assay [7]; 6.3 µg/mL (≈ 8.54 µM) in assay [8]; over 50 µg/mL in assay [9]; 1.6 µg/mL (≈ 2.17 µM) in assay [10]; 0.8 µg/mL (≈ 1.08 µM) in assay [11]; 25 µg/mL (≈ 33.9 µM) in assay [12].
